Measurements: PMC12655235 (Pharmaceuticals, 2025)

Experiments:
U87 cells = test: MTT assay for cell viability; format: cell-based; conditions: Homo sapiens, U-87 MG, 24 h incubation
Procedure: U87 cells were maintained in DMEM supplemented with 10% fetal bovine serum and antibiotics (100 U/mL penicillin, 100 µg/mL streptomycin) at 37 °C in a humidified 5% CO2 atmosphere under sterile conditions. To ensure accurate experimental comparisons, all experiments included two control groups: a negative control of cells incubated in drug-free medium, and a solvent control with cells exposed to drug-free medium containing 0.5% DMSO, to evaluate any potential solvent toxicity. Cell viability was determined using the MTT assay after a 24 h incubation of U87 cells with various drug formulations. These included free atorvastatin, free curcumin, a solution combining atorvastatin and curcumin, At-Cu LNCs and FA-At-Cu LNCs. Stock solutions (2 mg/mL) for individual free drugs and their combination were prepared in phosphate-buffered saline (PBS) containing 1% sterile DMSO to ensure complete solubilization, from which serial dilutions (25–800 µg/mL) were then made. At-Cu LNCs and FA-At-Cu LNCs were sonicated for 5 min prior to preparing their serial dilutions (0.025–250 µg/mL). […] The resultant formazan crystals were dissolved in acidified isopropanol, and absorbance was measured at 560 nm using PHERAstar microplate reader (BMG Labtech, Ortenberg, Germany). Cell viability was expressed as a percentage of untreated control cells, and half-maximal inhibitory concentrations (IC50) were calculated. […]

[1] = cited from earlier work
[2] = In vivo pharmacokinetics and biodistribution of 131I-radiolabeled drugs in glioma-bearing mice; parameters: species or system BALB/c mice; conditions: [131I]-curcumin
Procedure: Labeling conditions were systematically optimized by varying pH, drug concentration, oxidant amount, and reaction time. […] Purification was achieved by RP-HPLC to remove free iodine and impurities. […] The radiochemical yield was determined by calculating the percentage of the total radioactivity attributed to the radio-iodinated compound, using the following equation [105, 106]: Radiochemical yield %=Activity of labeled compond/Total activity ×100
All animal procedures were conducted in accordance with arrive guidelines and were approved by the Research Ethics Committee at the Faculty of Pharmacy, The British university in Egypt, with approval number (EX-2508). Male BALB/c mice (6 weeks old, weighing 20–25 g) were utilized for the study. Prior to the start of experiments, animals were acclimatized for two weeks under controlled environmental conditions (25 ± 2 °C, 12 h light/dark cycle) in group-housed (3–5 mice/cage) polypropylene cages at the animal house of the Egyptian Atomic Energy Authority. […] For induction of brain tumor in mice, they were anesthetized through intraperitoneal injection of 0.1 mL of ketamine-xylazine solution containing ketamine HCl (25 mg/mL) and xylazine (2.5 mg/mL) as described in current protocols. To implant cells intracranially, a calibrated 26-gauge 701N Hamilton micro-syringe (Micromeasure B.V., The Hague, The Netherlands) was used to inject 5 µL of 2.5 × 10^6 cells of CT-2A glioma cell suspension intracranially through the post glenoid foramen as previously reported. The right auricle was slowly pushed forward during the procedure, exposing the site of insertion. The syringe was held at an appropriate angle, and the cell suspension was slowly injected over 30 s. On completion, the needle was removed gently while applying light finger pressure to prevent bleeding. Additional pressure was applied for an additional 30 s after the removal of the needle to achieve hemostasis.
One hundred and eighty BALB/c mice were randomly assigned into six experimental groups, each further divided into six subgroups (n = 5 per subgroup), corresponding to specific time points post-injection: 0.5, 1, 2, 4, 8, and 24 h. […] Formulations were prepared under aseptic conditions using sterile water for injection and a laminar flow hood.
At each time point, five mice per group were anesthetized using isoflurane, and blood samples were collected by cardiac puncture into pre-heparinized polypropylene tubes. Mice were then euthanized by CO2 inhalation, and organs including the brain, liver, and kidneys and others were excised, rinsed with physiological saline, gently blotted, and weighed. Tissue and plasma samples were analyzed for radioactivity using a well-type γ-scintillation counter (SR-7,Nuclear Enterprises Ltd., San Carlos, CA, USA) and data were expressed as the percentage of the injected dose per gram of tissue (%ID/g).
The mean radioactivity values (represented as % injected dose per gram of tissue, %ID/g) acquired at various time points were examined using PKSolver, a Microsoft Excel add-in, in order to evaluate the pharmacokinetic behavior and tissue distribution of the radiolabeled formulations. […] AUC values based on time-radioactivity data were calculated using the trapezoidal rule.
Two quantitative parameters were computed using the AUC values obtained from the biodistribution study in order to assess the targeting performance and tissue selectivity of the formulations. The following equation was used to calculate tumor targeting efficiency (%): Tumor targeting efficiency %= AUC0−24 glioma/AUC0−24 blood x100

[3] = Solubility study of folic acid in acetone; format: physicochemical; conditions: sedimentation at 40 mg
Procedure: The optimized formulation, composed of 39.60% w/w solutol, 10.50% w/w oils and 16.60 mg total drugs, was selected using Design Expert® software based on achieving the smallest PS, then prepared and experimentally evaluated to verify agreement between predicted and actual values. […] Accordingly, LNCs functionalized with 10, 20, and 30 mg FA were prepared and assessed for PS, PDI, and ZP. […] This oily phase was then mixed with the aqueous phase (composed of 100 mg sodium chloride in 2.5 mL distilled water). Then the mixture was subjected to three thermal cycling intervals (85 °C and 55 °C) under magnetic stirring. Finally ice-cold water was added till 10 g formulation was obtained. Stirring then continued for 10 min at room temperature.

[4] = i.v. 2 mg/kg, glioma-bearing mice

IC50 (U87 cells)	AUC (0–24 h) Intestine, curcumin ([2]; i.v.)	AUC (0–24 h) Spleen, curcumin ([2]; i.v.)	AUC (0–24 h) kidneys, curcumin ([2]; i.v.)	AUC (0–24 h) liver, curcumin ([2]; i.v.)	AUC (0–24 h) Blood, curcumin [2, 4]	AUC (0–24 h) Brain, curcumin [2, 4]	AUC (0–24 h) Glioma, curcumin [2, 4]	Complete solubility in acetone [3]	SMILES	Renal excretion of atorvastatin and its active metabolites [1]
680 ± 17.2 µg/mL	–	–	–	–	–	–	–	–	CC(C)c1c(C(=O)Nc2ccccc2)c(-c2ccccc2)c(-c2ccc(F)cc2)n1CC[C@@H](O)C[C@@H](O)CC(=O)O [atorvastatin, Atorvastatin calcium]	less than 2 % of the dose
724 ± 78.3 µg/mL	526.50 ± 111.63 %ID*h/g tissue	7.07 ± 1.70 %ID*h/g tissue	57.87 ± 12.47 %ID*h/g tissue	711.50 ± 114.83 %ID*h/g tissue	72.27 ± 15.44 %ID*h/g tissue	1.47 ± 0.44 %ID*h/g tissue	3.72 ± 1.34 %ID*h/g tissue	–	COc1cc(/C=C/C(=O)CC(=O)/C=C/c2ccc(O)c(OC)c2)ccc1O [curcumin, Curcumin]	–
–	–	–	–	–	–	–	–	up to 30 mg	Nc1nc2ncc(CNc3ccc(C(=O)N[C@@H](CCC(=O)O)C(=O)O)cc3)nc2c(=O)[nH]1 [FA, Folic acid]	–
